{"source": "patent US8222231B2", "about": "“Derivatives of partially desulphated glycosaminoglycans endowed with antiangiogenic activity and devoid of anticoagulating effect” (Sigma-Tau Industrie Farmaceutiche Riunite SpA, priority 2000, dated 2012)", "key": {"CAM": {"test_system": "CAM", "settings": "in the presence of corticosteroids; compared with heparin; cited from earlier work"}, "[1]": {"molecular_target": "T1, FGFR/FGF2/HSPG ternary complex (Homo sapiens, UniProt P09038)", "T1 construct": "expressed in transfected cells; host or cells: CHO 745/flg (HSPG-deficient CHO mutants transfected with FGFR-1); fixed CHO-K1 monolayer supplies HSPGs; FGF-2 added to the medium", "T1 sequence (P09038 143-288, one chain of several)": "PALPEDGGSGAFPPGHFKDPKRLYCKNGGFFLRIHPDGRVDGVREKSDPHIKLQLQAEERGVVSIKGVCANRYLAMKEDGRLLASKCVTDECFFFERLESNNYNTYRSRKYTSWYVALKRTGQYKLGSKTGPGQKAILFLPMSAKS", "assay": "Inhibition of FGF2-mediated intercellular adhesion of CHO-K1 and CHO-745flg cells", "format": "cell-based, Chinese hamster", "text": "To this end an in-vitro model was designed capable of assessing the interference of the various different heparin derivatives with bFGF binding to its own receptor.\nThese latter cells were stably transfected with cDNA for green fluorescent protein and for this reason could be observed under the fluorescence microscope with a combination of filters for the detection of green emission. In brief, the technique is based on the possibility that the two types of cells may interact (form stable bonds) only if FGF is added to the two cell types. In fact, in this case, the heparan sulphates of the CHO-745flg cells will bind to FGF, which in turn will bind to the CHO-K1 cells, establishing a bridge. The binding that occurs is detectable as a result of the green fluorescence emitted by the CHO-745flg cells.\nCHO-K1 cells were seeded at a density of 90,000 cells/cm2 in 24-well plates. After 24 hours the cells were fixed in 3% glutaraldehyde in PBS for 2 hours at 4° C. and washed with 0.1 M glycine/PBS. […] After 2 hours' incubation at 37° C., the adhering cells were counted under the inverted microscope. The results were expressed as percentage of the number of cells adhering compared to those measured in the absence of the test compounds. […]"}, "[2]": {"test_system": "chick embryo chorioallantoic membrane", "assay": "Angiostatic activity on chick embryo chorioallantoic membrane (CAM) model", "settings": "in vivo", "procedure": "For the study of angiogenesis the model used was the chick embryo chorioallantoic membrane model (Ribatti e al. Int. J. Dev. Biol., 40, 1189 (1996)).\n300 embryonated hens' eggs were incubated at 37° C. in constant humidity conditions. On the 3rd day of incubation, after aspirating 2-3 ml of albumen from the acute pole of the egg so as to detach the CAM from the shell, a window was cut with scissors in the shell. The vessels underlying the CAM were thus exposed. The window was closed with a transparent glass panel and the eggs were put back into the incubator. […] The experiments were discontinued on the 12th day of incubation, when an overall assessment of the angiogenic activity of the molecules was carried out, expressed as percentage inhibition in relation to the number of experiments initiated and completed (Table 9). In addition, for compound ST1514, assayed at the concentration of 100 μg/embryo, a macroscopic quantitative evaluation of the angiostatic activity was also carried out according to the technique proposed by Brooks et al. (Science, 264, 569, (1994)), counting the number of vessels surrounding the sponge. […]"}, "[3]": {"assay": "Evaluation of heparin toxicity in Balb/c mice", "format": "in vivo", "settings": "50 mg/kg and 25 mg/kg subcutaneously, q2dx5", "procedure": "20 6-week-old female Balb/c mice weighing 20 g (Harlan), divided into groups by casual randomisation, were treated with heparin sodium, as a reference, and with the compound according to the present invention called STI514. The treatment schedule was of the q2dx5 type, i.e. 5 total administrations at intervals of 2 days, administering 200 μl/mouse of 50 mg/kg/10 ml and 25 mg/kg/10 ml solutions subcutaneously.\nHeparin sodium: the solution is prepared by solubilizing 160 mg of powder in 4 ml of PBS 1× pH 7.4 free of Ca^++-and Mg^++-ions; it is subdivided into aliquots of 243 μl and stored at −20° C. At the time of treatment, the solution is diluted in Ca^++-and Mg^++-free PBS (Dulbecco, modified formula) 1×, pH 7.4 so as to have the substance at final concentrations of 50 mg/kg/10 ml and 25 mg/kg/10 ml.\nST1514: the solution is prepared by solubilizing 160 mg of powder in 4 ml of Ca^++-and Mg^++-free PBS 1×, pH 7.4; it is subdivided into aliquots of 243 μl and stored at −20° C. […]\nFull blood count: the appliance (Cell Analyzer 580 A, DELCON) is used according to the standard procedure described in the operating manual. […] This solution is used for the WBC reading. Solution B, on the other hand, is used for the RBC and platelet (PLT) readings. Each sample is read in duplicate.\nThe data obtained will be analyzed using ANOVA."}}, "data": [{"substance": "2-O-desulfated heparin", "values": [{"measurement": "antiangiogenic activity as assessed by means of the CAM test", "setting": "CAM", "value": "partly maintained the antiangiogenic activity of heparin"}]}, {"substance": "Heparin", "values": [{"measurement": "Cell-Cell Adh. (ID50, ng/mL), inhibition of FGF2-mediated cell-cell adhesion", "setting": "[1]", "value": 100, "unit": "ng/mL"}, {"measurement": "Angiostatic activity on CAM model (stated in words)", "setting": "[2]", "value": "no activity"}]}, {"substance": "heparin sodium", "values": [{"measurement": "liver characteristics at autopsy", "setting": "[3]", "value": "livers with abnormal characteristics"}]}]}
